No end group written: not given here.
Key:
GLUT4 = assay: Measurement of GLUT4myc translocation in L6 myotubes (antibody-coupled colorimetric assay); type: cell-based, rat; conditions: L6-GLUT4myc cells
Source text: We determined the effect of six synthetic peptides (SP1-6) and four peptide compositions on in vitro GLUT4 translocation using the L6 rat skeletal muscle cell line. A clone of the L6 cell line containing overexpression of GLUT4 tagged with a c-myc epitope (courtesy of Prof. Amira Klip, Hospital for Sick Children, Toronto) was used to investigate the efficacy of each synthetic peptide and peptide composition for effects on GLUT4 translocation in a dose-response design.
L6-GLUT4myc cells were grown in 10% FBS and 2 μg/ml blasticidin. Cells were grown for 48-72 hours before being seeded in 24-well plates at 15,000 cells per well in 2% FBS and allowed to differentiate for 6 to 8 days prior to experimentation.
(§1) L6-GLUT4myc cells were serum-starved for three hours prior to incubation with 100 nM of insulin for 30 mins, or 200, 20, 2.0 and 0.2 μM of SP, and 2, 1, 0.5 and 0.25 mg/ml of peptide composition for 3 hours respectively. A 3 hour incubation period was selected based on previous findings identifying that incubation with branch chain amino acid containing di-peptides for 3 hours increases glucose uptake in L6 myotubes 1. Treatments were staggered in order to determine GLUT4myc translocation at the same time point.
The quantity of myc-tagged GLUT4 at the cell surface was measured by antibody-coupled colorimetric assay. Briefly, after incubation with either insulin for 30 mins or synthetic peptide or peptide composition for 3 hours respectively, L6-GLUT4myc cells were fixed via incubation with 3% paraformaldehyde (PFA). A 0.1 M glycine solution was then added to quench PFA and cells were blocked with 5% goat serum. The myotube monolayer was exposed to anti-myc antibody and then incubated with peroxidase conjugated donkey anti-mouse IgG. 1 mL of o-phenylenediamine dihydrochloride (OPD) reagent was added to each well and this reaction was stopped by adding 250 μl/well of 3 M HCL. To determine GLUT4 translocation to cell surface, a measured aliquot of each condition was determined spectrophotometrically on a plate reader using absorbance at 492 nm. […]

L6-GLUT4myc cells = assay: Cell viability / cell death seen in the GLUT4 translocation experiment; type: cell-based, rat; conditions: synthetic peptide 200 μM, 3 hours
Description: as §1

In the case of VLDLAIPVNRPGQL [SP2], the “stimulatory effect on skeletal muscle GLUT4 translocation (conclusion of the experiment)” value (GLUT4; dose-response design) is reported as “displayed a trend for stimulatory effect” and the GLUT4 translocation (GLUT4; synthetic peptide 0.2-2 μM, 3 hours) is reported as “trend for SP2 to increase GLUT4 translocation”.

In the case of insulin [reference compound], the “average increase in cell surface GLUT4 translocation compared to untreated control” value (GLUT4; 100 nM insulin, 30 mins) is reported as 1.72 fold.

With DTFYNAAWDPSNR [SP1, DTFYNAAWDPSNR] the cell viability (L6-GLUT4myc cells) was “poor cell viability”.
